Data: patent publication US6342492B1, “Anti-viral triaza compounds and compositions” (The Research Foundation of State University of New York, priority 1995, dated 2002)
Counter-ions that a name gives are not always drawn. Like-named read-outs stand apart in the source and are kept apart here.

How the values were obtained:
Human Cytomegalovirus [1] = assay: Semi-automated CPE-inhibition assay for HCMV in human foreskin fibroblast cells; assay type: cell-based
Method: (§1) Additional antiviral testing was carried out to test the efficacy of compounds of the invention against human cytomegalovirus (HCMV) and another herpesvirus, Variecella Zoster Virus(VZV). The compounds tested were compound (1), the HCl salt of compound (1), Compounds 211, 43, 213 and 214.

[2] = test system: human foreskin fibroblast cells; assay: Inhibition of cell proliferation (cytotoxicity) in herpesvirus screening; assay type: cell-based
Human Cytomegalovirus [3] = assay: Plaque reduction assay for HCMV; assay type: cell-based; conditions: read-out: Human Cytomegalovirus EC50 (values in parentheses)
Varicella Zoster Virus = assay: Plaque reduction assay for VZV (Ellen strain); assay type: cell-based
Method: as §1

HIV strain MD48 = assay: MAGI assay on HeLa-MAGIC cells (plaque inhibition); assay type: cell-based; conditions: Human immunodeficiency virus 1; MAGI assay on HeLa-MAGIC cells (plaque inhibition); read-out: ED50 MD48/HeLa
[4] = test system: HIV strain 2h, a primary pediatric clinical isolate; assay: Protein (p24) assay in PBMC cells with 2h; assay type: cell-based; conditions: Human immunodeficiency virus 1, 2 h; Protein (p24) assay in PBMC cells; read-out: ED50 2h/PBMC
HIV strain MB48 = assay: Reverse transcriptase (RT) assay in MT-2 cells, HIV strain MB48; assay type: cell-based; conditions: Human immunodeficiency virus 1, MT2; Reverse transcriptase (RT) assay in MT-2 cells; read-out: ED50 MB48/MT-2
[5] = Inhibition of cell proliferation (cytotoxicity) in herpesvirus screening; assay type: cell-based, human; conditions: human, human foreskin fibroblast cells, inhibit cell proliferation by 50%
[6] = HCMV CPE-inhibition screen, read-out: Human Cytomegalovirus CC50
[7] = VZV screen, read-out: Varicella Zoster Virus CC50

Row | Compound | melting point | EC50 (Human Cytomegalovirus [1]) | CC50 ([2]; inhibit cell proliferation by 50%, HCMV CPE-inhibition screen, read-out: Human Cytomegalovirus CC50) | CC50 ([2]; inhibit cell proliferation by 50%, VZV screen, read-out: Varicella Zoster Virus CC50) | CC50 ([2]; with HCMV plaque reduction assay, read-out: Human Cytomegalovirus CC50 (values in parentheses)) | EC50 (Human Cytomegalovirus [3]) | EC50 (Varicella Zoster Virus) | EC50 (HIV strain MD48) | EC50 [4] | EC50 (HIV strain MB48) | EC50 (Human Cytomegalovirus [1]; Human betaherpesvirus 5) | CC50 [5, 6] | CC50 [5, 7] | EC50 (Varicella Zoster Virus; Human alphaherpesvirus 3)
1 | C=C1CN(S(=O)(=O)c2ccccc2)CCCN(Cc2ccccc2)CCCN(S(=O)(=O)c2ccccc2)C1 (as salt: HCl) [Compound 211, 9-Benzyl-3-methylene-1,5-dibenzenesulfonyl-1,5,9-triazacyclododecane] | 135 to 136 °C | – | – | – | – | – | – | – | – | – | – | – | – | –
2 | N-Benzyl-N-[3-(N-2-methyl-2-propenyl-toluenesulfonamido)propyl]-N-(3-toluenesulfonamidopropyl)amine dihydrogen sulfate [Compound 214] | – | 2.2 µM | > 150 µM | 68.5 µM | 147 µM | 20.5 µM | 25.2 µM | – | – | – | – | – | – | –
3 | C=C1CN(S(=O)(=O)c2ccc(C)cc2)CCC[N+]([O-])(Cc2ccccc2)CCCN(S(=O)(=O)c2ccc(C)cc2)C1 [Compound 43, 9-Benzyl-3-methylene-1,5-ditosyl-1,5,9-triazacyclododecane-9-oxide] | – | – | – | – | – | – | – | 3.5 µM | 0.5 µM | 1.8 µM | > 170 µM | > 170 µM | > 170 µM | 24.3 µM
4 | C=C1CN(S(=O)(=O)c2ccccc2)CCCN(Cc2ccccc2)CCCN(S(=O)(=O)c2ccccc2)C1 [Compound 211, 9-Benzyl-3-methylene-1,5-dibenzenesulfonyl-1,5,9-triazacyclododecane] | – | – | – | – | – | – | – | 1.5 µM | 0.5 µM | 1.9 µM | > 170 µM | > 170 µM | > 170 µM | 91.7 µM
